In patent publication US12661355B2, “Compounds and methods for inducing UCP1 expression” (The Regents of the University of California, priority 2020, dated 2026):

Tests used:
Ucp1 = assay: Gene expression by qPCR in immortalized brown adipocytes; format: cell-based, mouse
Method: Primary brown adipocytes were isolated according to known methods. An established mouse brown adipocyte cell line was obtained from Dr. Bruce Spiegelman (Dana-Farber Cancer Institute, Boston, USA). To differentiate primary and immortalized brown adipocytes, cells were grown until confluency in DMEM containing 10% FBS, 25 mM glucose 1 mM pyruvate, 2 mM glutamine, 20 nM insulin, 1 nM T3, and antibiotics. Once confluent (day 0), differentiation was induced by supplementing the medium with 0.5 mM IBMX, 0.5 μM dexamethasone, and 0.125 mM indomethacin, for 2 days. Differentiation was continued in the original medium (without IBMX, dexamethasone and indomethacin) for 7-10 days.
TScreening was conducted at the UCLA Molecular Screening Shared Resource using automated instruments Immortalized brown adipocytes were differentiated in T225 flasks and plated in Matrix 384-well plates (26,000 cells per well) with white flat bottom (ThermoScientific) using trypsin and collagenase type II (Sigma C6885). The small molecule libraries screened were a BioMol library (204 compounds), an FDA-approved drug library (1120 compounds), a Microsource spectrum collection (2000 compounds), and a druggable compound set (8000 compounds). Molecules were delivered at 10 μM final concentration in DMSO. The screen was performed in duplicate on different days. After 18 h, luciferase activity was measured with Bright-Glo luciferase assay system and an LJL instrument. Data were normalized to the basal response (100% activity) in the presence of DMSO. Following the primary screen, 92 molecules were selected for validation and used to treat brown adipocyte cells plated in a 96-well plate overnight. RNA was extracted with an SV 96 Total RNA Isolation System (Promega). Compounds used for follow-up studies were identified using search tools available from Molport (molport.com), and ordered from the same company.
RNA levels were measured by qPCR according to known methods. Briefly, RNA was extracted with TRIzol (Invitrogen) and reverse transcribed with iScript (Bio-Rad). Real-time PCR analysis was performed with a CFX Connect (Bio-Rad).
Mouse RNA levels were measured by qPCR according to known methods. Data were normalized to B2m and Tbp reference genes. Human RNA was extracted using an RNA Mini Plus kit (Zymo) and gene expression determined by Taqman assay. The 1-step qPCR was run on a QuantStudio 12K Flex Real Time PCR System (ThermoFisher) using the following protocol: 50° C. for 5 minutes, 95° C. for 20 seconds, 40 cycles of 95° C. for 15 seconds and 60° C. for 60 seconds. Data were normalized to PPIA and PSMB2 reference genes. For global gene expression analysis, RNA isolated from brown adipocytes treated with compounds as indicated (four biological replicates) was hybridized to Illumina mouse Ref 8 V2.0 bead chips at the University of California, Los Angeles Neuroscience Genomics Core as previously described. Data were processed with GenomeStudio V2011.1 using the quantile normalization, background subtraction, and a present call of P<0.05.

AKAP6 = biological target: T1, AKAP6 (Mus musculus, UniProt E9Q9K8); assay: CETSA in brown adipocytes, AKAP6; format: binding; conditions: 10 μM for 8 h
T1 construct: endogenous in cells; host or cells: immortalized mouse brown adipocytes
T1 sequence (E9Q9K8 1-2307): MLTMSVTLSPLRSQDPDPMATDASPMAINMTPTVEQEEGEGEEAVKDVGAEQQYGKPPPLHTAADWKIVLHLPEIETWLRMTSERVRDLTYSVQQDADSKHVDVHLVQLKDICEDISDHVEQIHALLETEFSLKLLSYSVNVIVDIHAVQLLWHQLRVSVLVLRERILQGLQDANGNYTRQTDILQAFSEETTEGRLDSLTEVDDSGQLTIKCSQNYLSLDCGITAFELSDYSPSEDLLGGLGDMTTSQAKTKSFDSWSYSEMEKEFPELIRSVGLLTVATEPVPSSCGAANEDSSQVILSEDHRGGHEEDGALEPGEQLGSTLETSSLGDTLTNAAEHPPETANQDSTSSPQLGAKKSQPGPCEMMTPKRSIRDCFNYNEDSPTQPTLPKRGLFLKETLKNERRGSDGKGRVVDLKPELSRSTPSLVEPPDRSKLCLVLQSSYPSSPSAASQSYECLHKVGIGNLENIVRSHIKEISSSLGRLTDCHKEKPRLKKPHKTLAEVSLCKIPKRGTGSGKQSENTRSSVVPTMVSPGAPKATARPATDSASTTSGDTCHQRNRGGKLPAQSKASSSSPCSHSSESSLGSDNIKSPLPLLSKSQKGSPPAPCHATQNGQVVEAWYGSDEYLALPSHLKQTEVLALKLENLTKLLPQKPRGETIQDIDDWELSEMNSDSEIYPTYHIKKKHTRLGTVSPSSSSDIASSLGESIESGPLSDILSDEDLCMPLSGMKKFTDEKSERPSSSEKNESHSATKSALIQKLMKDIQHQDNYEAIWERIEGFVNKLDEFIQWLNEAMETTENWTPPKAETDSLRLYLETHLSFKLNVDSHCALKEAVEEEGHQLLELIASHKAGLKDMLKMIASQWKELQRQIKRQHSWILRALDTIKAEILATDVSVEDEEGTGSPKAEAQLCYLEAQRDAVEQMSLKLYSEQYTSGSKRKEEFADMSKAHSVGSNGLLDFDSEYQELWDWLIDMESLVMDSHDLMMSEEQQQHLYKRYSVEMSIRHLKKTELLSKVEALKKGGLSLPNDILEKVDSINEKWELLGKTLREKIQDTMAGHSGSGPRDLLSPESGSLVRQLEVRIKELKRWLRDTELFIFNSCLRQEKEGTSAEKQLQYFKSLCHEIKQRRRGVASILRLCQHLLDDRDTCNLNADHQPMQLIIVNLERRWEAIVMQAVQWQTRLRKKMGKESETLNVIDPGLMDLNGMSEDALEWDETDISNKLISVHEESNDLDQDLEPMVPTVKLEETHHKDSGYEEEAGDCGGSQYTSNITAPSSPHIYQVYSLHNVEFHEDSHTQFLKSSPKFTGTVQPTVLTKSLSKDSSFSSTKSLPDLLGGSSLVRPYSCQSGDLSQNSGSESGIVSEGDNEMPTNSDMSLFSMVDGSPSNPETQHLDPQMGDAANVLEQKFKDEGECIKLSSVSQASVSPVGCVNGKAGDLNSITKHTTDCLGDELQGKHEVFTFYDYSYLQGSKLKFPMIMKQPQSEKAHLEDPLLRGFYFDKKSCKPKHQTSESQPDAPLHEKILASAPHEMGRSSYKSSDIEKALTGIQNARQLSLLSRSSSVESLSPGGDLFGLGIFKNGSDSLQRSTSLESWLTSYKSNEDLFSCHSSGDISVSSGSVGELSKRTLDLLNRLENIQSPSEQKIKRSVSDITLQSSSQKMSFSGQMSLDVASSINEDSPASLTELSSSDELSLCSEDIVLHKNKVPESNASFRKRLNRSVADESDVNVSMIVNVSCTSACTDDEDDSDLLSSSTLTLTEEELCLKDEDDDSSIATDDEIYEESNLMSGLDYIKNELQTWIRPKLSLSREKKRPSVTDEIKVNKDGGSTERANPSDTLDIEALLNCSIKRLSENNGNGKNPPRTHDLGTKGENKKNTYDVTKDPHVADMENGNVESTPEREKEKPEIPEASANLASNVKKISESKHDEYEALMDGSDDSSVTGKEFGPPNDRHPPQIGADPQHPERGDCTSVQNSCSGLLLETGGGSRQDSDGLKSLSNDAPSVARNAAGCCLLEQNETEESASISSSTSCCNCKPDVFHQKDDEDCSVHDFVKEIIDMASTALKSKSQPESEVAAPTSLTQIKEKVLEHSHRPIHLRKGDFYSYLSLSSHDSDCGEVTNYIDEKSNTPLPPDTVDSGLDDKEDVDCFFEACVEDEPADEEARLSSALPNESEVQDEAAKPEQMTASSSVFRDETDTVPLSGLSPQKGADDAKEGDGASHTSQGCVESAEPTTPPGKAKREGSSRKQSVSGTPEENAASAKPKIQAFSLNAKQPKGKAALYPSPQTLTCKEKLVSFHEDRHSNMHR
Method: (§1) CETSA assays were performed according to known methods. Briefly, differentiated brown adipocytes (one 10 cm dish per treatment) were treated with vehicle or compounds, trypsinized, counted, and re-suspended in approximately 450 μl PBS containing protease inhibitors (volumes were adjusted to have the same number of cells in each treatment). For each sample, 18 μl was distributed into each of 7 PCR tubes. Samples were heated using a thermocycler with a temperature gradient (iCycler, Biorad) for 3 min, followed by 3 min at room temperature, and then snap-frozen in liquid N2. After two freeze-thaw cycles, samples were centrifuged at 20,000 g for 15 min at 4° C., and the supernatants were transferred to another set of tubes. Proteins were analyzed by immunoblotting.
(§2) The potential interaction of Z160 with PKA subunits and AKAPs was assessed first by identifying which PKA subunits and AKAP isoforms are normally present in BAT. […] To perform the CETSA assays, cultured brown adipocytes were incubated with 10 μM Z160 for 8 h, after which the thermal shift was analyzed by Western blot.

p38 MAPK = assay: CETSA in brown adipocytes, p38 MAPK; format: binding, mouse; conditions: 10 μM for 8 h
Method: as §1, §2

[1] = immortalized brown adipocytes, 10 μM

SMILES | Ucp1 expression induction (Ucp1; 1 μM compared with 10 μM) | duration of effect on Ucp1 expression (Ucp1; 10 μM) | earliest time at which effect on Ucp1 expression was observed (Ucp1; 10 μM) [h] | expression of markers of brown adipocyte identity, mitochondrial function and fatty acid oxidation genes (Ucp1; [1]) | concentration of optimal Ucp1 expression induction (Ucp1; titration, overnight treatment) [µM] | heat stability of AKAP6 (AKAP6) | potency on Ucp1 induction compared with AST070 (Ucp1; 10 μM) | expression of lipolytic enzymes (Atgl, Hsl) and FGF21 at the mRNA level (Ucp1; immortalized brown adipocytes, 10 μM overnight) | heat stability of p38 MAPK (p38 MAPK)
O=C(CSc1nc2ccccc2c(=O)[nH]1)Nc1ccc2c(c1)OCCO2 [AST070, N-(2,3-dihydro-1,4-benzodioxin-6-yl)-2-[(4-oxo-3,4-dihydroquinazolin-2-yl)sulfanyl]acetamide] | lower induction | at least 24 h | 5 | promoted expression | 10 |  |  |  | 
COc1ccc(NC(=O)CSc2nc3ccccc3c(=O)[nH]2)c(OC)c1 [Z160] |  |  |  | promoted expression |  | did not influence the heat stability | greater potency than AST070 | increased expression | did not influence the heat stability
